# Data: patent US7417053B2, “Pyrazolo[1,5-a]pyridine derivatives or pharmaceutically acceptable salts thereof” (Teijin Pharma Limited, priority 2005, dated 2008)
# Structures can show the parent of a compound that is named as a salt.
# Molecular target: recombinant human MAPKAP-K2 (Homo sapiens, UniProt P49137)
# Test: Inhibitory activity against MAPKAP-K2 enzyme (33P-ATP peptide phosphorylation)
# Type: biochemical
# Conditions: recombinant human MAPKAP-K2, ATP 20 μmol/L solution, room temperature 30 min; read-out: Activity Strength (MAPKAP-K2 IC50 value)
# Procedure: General Measurement Method for Determining the Inhibitory Activity Against MAPKAP-K2 enzyme
# (Preparation of Solutions of Compounds)
# Each compound was dissolved in DMSO to prepare a solution with a concentration of 20 mmol/L and this solution was stored at −20° C. This stock solution was diluted with DMSO successively to prepare solutions with 200-fold concentrations of a necessary range. These solutions were further diluted with water at a ratio of 1:20 to prepare solutions with 10-fold concentrations of a necessary range. Each of these solutions (5 μL) was used for each reaction in 50 μL-scale. Through the dilution series of all compounds, the final DMSO concentration was kept at 0.5%. Conventional tests for the compounds were carried out at a final concentration range from 100 μmol/L to 0.03 μmol/L. but in some cases, tests were carried out at lower concentrations, depending on activity.
# (Measurements of MAPKAP-K2 Enzyme Activities)
# To a 5% DMSO aqueous solution (5 μL) of a test compound, a solution (25 μL) containing a peptide substrate [peptide substrate 60 μmol/L, ATP 20 μmol/L, Tris buffer 60 mmol/L (pH 7.5), EGTA 0.2 mmol/L, β-mercaptoethanol 0.2%, magnesium acetate 20 mmol/L, [γ-33P]ATP 0.1 μCi (specific radioactivity ca. 110 TBq/mmol)] was added. The reaction was initiated by adding a solution (20 μL) containing MAPKAP-K2 enzyme [recombinant human MAPKAP-K2 10 mU, Tris buffer […] (pH 7.5), EGTA 0.1 mmol/L, β-mercaptoethanol 0.1%, BSA 0.1%]. After the reaction was carried out at room temperature for 30 min, 200 mmol/L phosphoric acid (50 μL) was added to quench the reaction, and 90 μL of the reaction mixture was adsorbed on a multiscreen PH plate (Millipore). The plate was washed with 100 mmol/L phosphoric acid. After the plate was dried, 30 μL of MicroScint-O (Perkin-Elmer) was added, and the count per minute was measured on a scintillation counter to determine the inhibitory activity. The peptide substrate was Lys-Lys-Leu-Asn-Arg-Thr-Leu-Ser-Val-Ala.
# • % Reference=(X−B)/(Tot−B)×100 • % Inhibition=100−% Reference • X represents count per minute of the well with a test compound applied. • B represents count per minute of the well without the enzyme. • Tot represents count per minute of the well with only DMSO solvent and no test compound applied. (Calculation of MAPKAP-K2 Inhibitory Activity) • IC50 value represents a concentration of compound at which 50% inhibition is observed.
# recombinant human MAPKAP-K2, sequence (P49137 whole entry): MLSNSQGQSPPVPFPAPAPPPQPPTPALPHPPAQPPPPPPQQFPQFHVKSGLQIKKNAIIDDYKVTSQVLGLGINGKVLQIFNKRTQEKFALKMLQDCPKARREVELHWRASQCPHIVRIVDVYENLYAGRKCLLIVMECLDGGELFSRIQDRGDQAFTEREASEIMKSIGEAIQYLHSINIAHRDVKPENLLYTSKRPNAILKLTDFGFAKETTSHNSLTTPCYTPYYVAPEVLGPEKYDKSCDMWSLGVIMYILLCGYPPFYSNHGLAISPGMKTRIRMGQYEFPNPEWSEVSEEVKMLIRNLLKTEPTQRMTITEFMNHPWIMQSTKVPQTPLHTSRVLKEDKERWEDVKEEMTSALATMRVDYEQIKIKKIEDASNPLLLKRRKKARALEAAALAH
row,IC50,Structure (SMILES)
1,1 to 10 µM,"CSc1ccccc1Nc1cc(N[C@H]2CC[C@H](N)CC2)c(C#N)c2ccnn12 [Compound 99, 5-(trans-4-Aminocyclohexylamino)-7-(2-methylthiophenylamino)pyrazolo[1,5-a]pyridine-4-carbonitrile trifluoroacetate salt]"
2,0.2 to 1 µM,"CCOc1ccc(Nc2c(C)c(NC3CCNCC3)c(C#N)c3ccnn23)cc1 [Compound 103, 7-(4-Ethoxyphenylamino)-6-methyl-5-(4-pyperidylamino)pyrazolo[1,5-a]pyridine-4-carbonitrile trifluoroacetate salt]"
3,10 to 100 µM,"CCOc1ccc(Nc2c(C)c(N[C@H]3CCCC[C@@H]3N)c(C#N)c3ccnn23)cc1 (relative stereo) [Compound 101, 5-[(trans-2-Aminocyclohexyl)amino]-7-(4-ethoxyphenylamino)-6-methylpyrazolo[1,5-a]pyridine-4-carbonitrile trifluoroacetate salt]"
4,0.2 to 1 µM,"CCOc1ccc(Nc2c(-c3ccccc3)c(NC3CCCNC3)c(C#N)c3ccnn23)cc1 (stereo not shown) [Compound 95, 5-(3-Piperidylamino)-7-(4-ethoxyphenylamino)-6-phenylpyrazolo[1,5-a]pyridine-4-carbonitrile trifluoroacetate salt]"
5,0.2 to 1 µM,"CCOc1ccc(Nc2c(C)c(NCCN)c(C#N)c3ccnn23)cc1 [Compound 106, 5-[(2-Aminoethyl)amino]-7-[(4-ethoxyphenyl)amino]-6-methylpyrazolo[1,5-a]pyridine-4-carbonitrile trifluoroacetate salt]"
6,0.2 to 1 µM,"COCCOc1ccc(Nc2c(C)c(N[C@H]3CCNC3)c(C#N)c3ccnn23)cc1 [Compound 88, 5-[(3S)-3-Pyrrolidylamino]-7-[4-(2-methoxyethoxy)phenylamino]-6-methylpyrazolo[1,5-a]pyridine-4-carbonitrile trifluoroacetate salt]"
7,0.2 to 1 µM,"CCOc1ccc(Nc2c(C)c(NCCCN)c(C#N)c3ccnn23)cc1 [Compound 107, 5-[(3-Aminopropyl)amino]-7-[(4-ethoxyphenyl)amino]-6-methylpyrazolo[1,5-a]pyridine-4-carbonitrile trifluoroacetate salt]"
8,1 to 10 µM,"CCOc1ccc(Nc2c(C)c(NCC3CCCNC3)c(C#N)c3ccnn23)cc1 (stereo not shown) [Compound 128, 7-[(4-Ethoxyphenyl)amino]-6-methyl-5-[(3-piperidylmethyl)amino]pyrazolo[1,5-a]pyridine-4-carbonitrile trifluoroacetate salt]"
9,0.2 to 1 µM,"CCOc1ccc(Nc2c(C)c(N[C@H]3CC[C@H](NCCc4ccccc4)CC3)c(C#N)c3ccnn23)cc1 [Compound 125, 7-[(4-Ethoxyphenyl)amino]-6-methyl-5-(trans-{4-[(2-phenylethyl)amino]cyclohexyl}amino]pyrazolo[1,5-a]pyridine-4-carbonitrile trifluoroacetate salt]"
10,< 0.2 µM,"CCCc1c(N[C@H]2CC[C@H](N)CC2)c(C#N)c2ccnn2c1Nc1ccc(OCC)cc1 [Compound 122, 5-(trans-4-Aminocyclohexylamino)-7-(4-ethoxyphenylamino)-6-propylpyrazolo[1,5-a]pyridine-4-carbonitrile]"
11,10 to 100 µM,"CCOc1ccc(Nc2c(C)c(NCCCCCCN)c(C#N)c3ccnn23)cc1 [Compound 132, 5-[(6-Amionohexyl)amino]-7-[(4-ethoxyphenyl)amino]-6-methylpyrazolo[1,5-a]pyridine-4-carbonitrile trifluoroacetate salt]"
12,< 0.2 µM,"CCOc1ccc(Nc2c(CC)c(N[C@H]3CC[C@H](N)CC3)c(C#N)c3ccnn23)cc1 [Compound 109, 5-(trans-4-Aminocyclohexylamino)-7-(4-ethoxyphenylamino)-6-ethylpyrazolo[1,5-a]pyridine-4-carbonitrile]"
13,1 to 10 µM,"CCOc1ccc(Nc2c(C)c(NCCC3CCCN3)c(C#N)c3ccnn23)cc1 (stereo not shown) [Compound 129, 7-[1(4-Ethoxyphenyl)amino]-6-methyl-5-[2-(pyrrolidin-2-ylethyl)amino]pyrazolo[1,5-a]pyridine-4-carbonitrile trifluoroacetate salt]"
